Results reported in patent US10792287B2, “Methods for treating mitochondrial diseases” (The Regents of the University of California, priority 2015, dated 2020).

Legend:
LHON cybrids (11778 G>A) = assay: Complex I-driven ATP synthesis in rotenone-inhibited LHON mutant cybrids (luciferase-based, high-throughput screen and concentration-response); type: cell-based
control healthy cybrid = assay: Mitochondrial copy number (MT-TL1/B2M ratio), control cybrids; type: cell-based; conditions: control cells; 24 hrs exposure
Experimental: (§1) FIGS. 14A-14C illustrate the effect of drugs on the mitochondrial copy number. Difference of mitochondrial copy number between 11778 (G>A) mutant and control cybrids (FIG. 14A). Effect of zolpidem and papaverine on the control healthy cybrid mitochondrial copy number (FIG. 14B) and 11778 (G>A) mutant cybrid mitochondrial copy number (FIG. 14C). Cells were treated with either vehicle or one of the drugs at specified concentration for 24 h. The cells were harvested after 24 h and the ratio between MT-TL1 and B2M was determined. Data is presented as average relative fold change±std. deviation from three independent observations. Statistical significance (p<0.05) is denoted by ‘*’ and was determined by one way ANOVA and Dunett's post hoc test.

[1] = test system: 11778 (G>A) mutant cybrid; assay: Mitochondrial copy number (MT-TL1/B2M ratio), mutant cybrids; type: cell-based; conditions: LHON mutant cells [11778(G>A)]; 24 hrs exposure
Experimental: as §1

[2] = test system: permeabilized LHON mutant (11778 G>A) cells; assay: Complex I-driven ATP synthesis, drug applied to permeabilized LHON mutant cells; type: cell-based; conditions: permeabilized cells (30 min) instead of intact cells (2 h); rotenone 0.03 μM
Experimental: Cells were permeabilized with streptolysin O and mitochondrial complex I-driven ATP synthesis was measured in presence of complex I substrates (malate/pyruvate). […] Intact cells were permeabilized with streptolysin O and mitochondrial complex I-driven ATP synthesis was measured in presence of complex I substrates (malate/pyruvate).

control cybrids = assay: Papaverine response in rotenone-inhibited control cybrids; type: cell-based
Source text: FIG. 19A depicts response to papaverine in control cybrids. FIG. 19B depicts response to papaverine in mutant cybrids.

Ndufs4 knockout mice = assay: Visual cliff test; type: in vivo, mouse; conditions: P21-P35 treatment; papaverine 20 mg/kg, zolpidem 20 mg/kg, rapamycin 8 mg/kg i.p.; idebenone 200 mg/kg oral
[3] = test system: innate immune/inflammatory response in Ndufs4 KO retina; assay: Retinal gene expression of innate immune and inflammatory markers after drug treatment (Example 3); type: in vivo, mouse; conditions: Ndufs4 KO mice; doses as in drug formulation
Experimental: The graphs represent RNA expression of B2m (FIG. 21A), Tlr2 (FIG. 21B), Cxc110 (FIG. 21C), Cc15 (FIG. 21D), and Aif1 (FIG. 21E) in the wild type and Ndufs4 knockout retina. Bars represent mean delta Ct values normalized to housekeeping genes, Actb and Mapk1. Error bars represent standard error of the mean. Statistical significance was determined by two-tailed student's t test. * P<0.05, ** P<0.01, **** P<0.0001.
(§2) Wild type and Ndufs4 knockout mice were placed in one of five groups: vehicle, papaverine (20 mg/kg), zolpidem (20 mg/kg), rapamycin (8 mg/kg), or idebenone (200 mg/kg). For papaverine, zolpidem, and rapamycin, drug was dissolved in DMSO which was diluted in 5% PEG-400/5% Tween-20 in PBS. Vehicle contained all components except for the drug. The solution was then sterile filtered and intraperitoneal injections were performed using a 30 gauge needle. Idebenone was administered as a jelly and consumed orally.
We have previously shown that inflammatory gene expression of Aif1, Tlr2, B2m, Cc15, and Cxc110 are all elevated in the Ndufs4 KO mouse compared to wild type by more than 3-fold, indicating an inflammatory pathomechanism of mitochondrial blindness (Yu et al., Proc Natl Acad Sci USA, 2015, 112(42): E5689-98). […] Papaverine, zolpidem, rapamycin, and idebenone were administered to Ndufs4 KO mice to determine whether their protection of vision (FIG. 20) was through an anti-inflammatory mechanism of action. […] Thus, papaverine, zolpidem, and rapamycin appear to protect mitochondrial loss of vision through an antiinflammatory mechanism.

Ndufs4 KO mice [4] = assay: Starburst amacrine cell count (ChAT staining of whole retina); type: in vivo, mouse; conditions: two weeks (P21-P35) intraperitoneal injections
Experimental: 20× confocal images of whole retina stained with ChAT (marker of starburst amacrine cells) from wild type (FIG. 22A), Ndusf4 KO vehicle treated (FIG. 22B), Ndufs4 KO papaverine treated (FIG. 22C), Ndufs4 KO zolpidem treated (FIG. 22D), and Ndufs4 KO rapamycin treated (FIG. 22E) are shown.
as §2

Ndufs4 KO mice [5] = assay: Microglia activation (Iba1 staining of whole mount retinas); type: in vivo, mouse; conditions: two weeks (P21-P35) intraperitoneal treatment

In the case of COc1ccc(Cc2nccc3cc(OC)c(OC)cc23)cc1OC [papaverine], the fold induction at 10 µM (LHON cybrids (11778 G>A); 20 h, read-out: Fold change of ATP synthesis rate greater than 2x Median Absolution Deviation) is reported as 2.4, the “reversal of rotenone sensitivity of complex I-driven ATP synthesis” value (LHON cybrids (11778 G>A); different concentrations of drug 22 h, then rotenone 0.03 μM 2 h) is reported as “dose-dependently reversed the rotenone sensitivity” and the “protective effect with short treatment of intact cells” value (LHON cybrids (11778 G>A); intact cells treated with papaverine and rotenone 0.03 μM for 2 hrs) is reported as “protective effect of papaverine was observed”. The “concentration-dependent reversal of rotenone-induced ATP synthesis inhibition, comparison of the two hits” value (LHON cybrids (11778 G>A); papaverine vs zolpidem) was “stronger than Zolpidem”, the “ratio of mtDNA/nDNA” value (control healthy cybrid) was “did not significantly change the ratio of mtDNA/nDNA” and the “ratio of mtDNA/nDNA” value [1] was “did not significantly change the ratio of mtDNA/nDNA”. The “complex I driven ATP production in permeabilized cells” value [2] was “inhibited complex I driven ATP production”, the “complex 1-dependent ATP synthesis in normal cells inhibited by rotenone” value (control cybrids) was “dose dependently stimulates complex 1-dependent ATP synthesis” and the “visual function (median # edge detections)” value (Ndufs4 knockout mice) was “visual function was preserved”. The “innate immune/inflammatory gene expression (B2m, Tlr2, Cxcl10, Ccl5, Aif1) in retina” value [3] was “significantly inhibited a portion of the innate immune/inflammatory response”, the “starburst amacrine cell loss” value (Ndufs4 KO mice [4]) was “less cell loss than vehicle-treated Ndufs4 KO mice” and the microglia activation (Ndufs4 KO mice [5]) was “significant inhibition of microglia activation”.
